# Measurements reported in patent US10597368B2, “Syringolin analogues and methods of making and using same” (BROWN UNIVERSITY, priority 2015, dated 2020).
# Biological target: T1, human 20S proteasome (hs20S), chymotrypsin-like β5-subunits (Homo sapiens, UniProt P20618+P28074)
# T1 construct: purchased R&D
# Test: In vitro 20S peptidase inhibition kinetics, chymotrypsin-like activity (Suc-LLVY-AMC)
# Type: biochemical
# Conditions: second-order rate constant, Suc-LLVY-AMC substrate, 37° C.
# Method: In vitro 20S peptidase inhibition assays were recorded in a 384-well plate at a SpectraMax M5 (Molecular devises) plate-reader. Therefore, 5 nM human 20S (R&D) was incubated in buffer R (50 mM HEPES-KOH, pH 7.5, 0.5 mM EDTA) with 100 μM of the fluorogenic peptide substrates Suc-LLVY-AMC or Boc-LRR-AMC. Reactions were started by adding various amounts of inhibitors (5 nM to 500 μM) to a final volume of 30 μL and peptide hydrolysis was continuously monitored for 90 min by changes in fluorescence (excitation 380 nm; emission 440 nm) at 37° C. The kobs values were determined by fitting the raw data to equation (1). The slopes of the plots of kobsversus I gave an apparent value of kobs/I, also referred to as kinact/Ki for an irreversible inhibitor, which was then corrected by equation (2) to compensate for the effect of substrate competition, where app is the apparent value at different inhibitor concentrations.
# Using purified human 20S proteasome (hs20S) and a fluorogenic substrate (Suc-LLVY-AMC), in vitro assays were performed to systematically assess proteasome inhibition by the syringolin analogues. The choice of substrate was based on the fact that it is preferentially acted upon by the chymotrypsin-like β5-subunits of the proteasome due to the aromatic tyrosine residue at the scissile bond (i.e., P1 position).
# From measurements of the rates of hydrolysis of the fluorogenic substrate by the proteasome in the presence of increasing concentrations of each inhibitor, second-order rate constants kin/Ki (M^−1 s^−1) were determined (Table 1), which reflect both the affinity of the non-covalent binding (Ki) and the rate of the chemical reaction with the enzyme (kin). All of the syringolin analogues were capable in inhibiting the chymotrypsin-like activity of hs20S. Without wishing to be limited by any theory, consistent with the design predictions, the most significant contributor to the apparent second-order rate constants of the compounds was their binding affinity (Ki) rather than the rates of inhibition.
# In vitro 20S peptidase inhibition assays were recorded in a 384-well plate at a SpectraMax M5 (Molecular Devices) plate-reader. Therefore, 5 nM human 20S (R&D) was incubated in buffer R (50 mM HEPEs-KOH, pH 7.5, 0.5 mM EDTA) with 100 μM of the fluorogenic peptide substrate Suc-LLVY-AMC. Reactions were started by adding various amounts of inhibitors 5 nM to 500 μM) to a final volume of 30 μL and peptide hydrolysis was continuously monitored for 90 minutes by changes in fluorescence (excitation 380 nm; emission 440 nm) at 37 degrees Celsius. The kobs values were determined by fitting the raw data to equation 1. The slopes of the plots of kobs versus I gave an apparent value of kob/I, also referred to as kinact/Ki for an irreversible inhibitor, which was then corrected by equation 2 to compensate for the effect of substrate competition, where app is the apparent value at different inhibitor concentrations.
row,Compound,hs20S kin/Ki
1,"COC(=O)[C@@H](NC(=O)N[C@H](C(=O)N[C@H]1CCCCNC(=O)/C=C/[C@H](Cc2cccc(F)c2)NC1=O)C(C)C)C(C)C [Compound 6, (S)-methyl 2-(3-((S)-1-(((5S,8S,E)-5-(3-fluorobenzyl)-2,7-dioxo-1,6-diazacyclododec-3-en-8-yl)amino)-3-methyl-1-oxobutan-2-yl)ureido)-3-methylbutanoate]","2,471 M^−1s^−1"
2,"COC(=O)[C@@H](NC(=O)N[C@H](C(=O)N[C@H]1CCCCNC(=O)/C=C/[C@H](Cc2cc(F)cc(F)c2)NC1=O)C(C)C)C(C)C [Compound 7, (S)-methyl 2-(3-((S)-1-(((5S,8S,E)-5-(3,5-difluorobenzyl)-2,7-dioxo-1,6-diazacyclododec-3-en-8-yl)amino)-3-methyl-1-oxobutan-2-yl)ureido)-3-methylbutanoate]","1,579 M^−1s^−1"
3,"COC(=O)[C@@H](NC(=O)N[C@@H](Cc1ccccc1Cl)C(=O)N[C@H]1CCCCNC(=O)/C=C/[C@H](Cc2ccccc2F)NC1=O)C(C)C [Compound 17, (S)-methyl 2-(3-((S)-3-(2-chlorophenyl)-1-((5S,8S,E)-5-(2-fluorobenzyl)-2,7-dioxo-1,6-diazacyclododec-3-en-8-ylamino)-1-oxopropan-2-yl)ureido)-3-methylbutanoate]",7271 M⁻¹ s⁻¹
4,"COC(=O)[C@@H](NC(=O)N[C@@H](Cc1cccc(Cl)c1)C(=O)N[C@H]1CCCCNC(=O)/C=C/[C@H](Cc2ccccc2F)NC1=O)C(C)C [Compound 18, (S)-methyl 2-(3-((S)-3-(3-chlorophenyl)-1-((5S,8S,E)-5-(2-fluorobenzyl)-2,7-dioxo-1,6-diazacyclododec-3-en-8-ylamino)-1-oxopropan-2-yl)ureido)-3-methylbutanoate]",4656 M⁻¹ s⁻¹
5,"COC(=O)[C@@H](NC(=O)N[C@@H](Cc1ccccc1)C(=O)N[C@H]1CCCCNC(=O)/C=C/[C@H](Cc2ccccc2F)NC1=O)C(C)C [Compound 19, (S)-methyl 2-(3-((S)-1-((5S,8S,E)-5-(2-fluorobenzyl)-2,7-dioxo-1,6-diazacyclododec-3-en-8-ylamino)-1-oxo-3-phenylpropan-2-yl)ureido)-3-methylbutanoate]",5877 M⁻¹ s⁻¹
6,"COC(=O)[C@@H](NC(=O)N[C@@H](Cc1cccc(C)c1)C(=O)N[C@H]1CCCCNC(=O)/C=C/[C@H](Cc2ccccc2F)NC1=O)C(C)C [Compound 20, (S)-methyl 2-(3-((S)-1-((5S,8S,E)-5-(2-fluorobenzyl)-2,7-dioxo-1,6-diazacyclododec-3-en-8-ylamino)-1-oxo-3-m-tolylpropan-2-yl)ureido)-3-methylbutanoate]",3797 M⁻¹ s⁻¹
7,"COC(=O)[C@@H](NC(=O)N[C@@H](Cc1cccc(F)c1)C(=O)N[C@H]1CCCCNC(=O)/C=C/[C@H](Cc2ccccc2F)NC1=O)C(C)C [Compound 23, (S)-methyl 2-(3-((S)-1-((5S,8S,E)-5-(2-fluorobenzyl)-2,7-dioxo-1,6-diazacyclododec-3-en-8-ylamino)-3-(3-fluorophenyl)-1-oxopropan-2-yl)ureido)-3-methylbutanoate]",2199 M⁻¹ s⁻¹
8,"COC(=O)[C@@H](NC(=O)N[C@@H](Cc1ccccc1Cl)C(=O)N[C@H]1CCCCNC(=O)/C=C/[C@H](Cc2cccc(F)c2)NC1=O)C(C)C [Compound 24, (S)-methyl 2-(3-((S)-3-(2-chlorophenyl)-1-((5S,8S,E)-5-(3-fluorobenzyl)-2,7-dioxo-1,6-diazacyclododec-3-en-8-ylamino)-1-oxopropan-2-yl)ureido)-3-methylbutanoate]",2749 M⁻¹ s⁻¹
9,"COC(=O)[C@@H](NC(=O)N[C@@H](Cc1ccccc1F)C(=O)N[C@H]1CCCCNC(=O)/C=C/[C@H](Cc2cccc(F)c2)NC1=O)C(C)C [Compound 30, (S)-methyl 2-(3-((S)-1-((5S,8S,E)-S-(3-fluorobenzyl)-2,7-dioxo-1,6-diazacyclododec-3-en-8-ylamino)-3-(2-fluorophenyl)-1-oxopropan-2 yl)ureido)-3-methylbutanoate]",12202 M⁻¹ s⁻¹
10,"COC(=O)[C@@H](NC(=O)N[C@@H](Cc1cccc(C(F)(F)F)c1)C(=O)N[C@H]1CCCCNC(=O)/C=C/[C@H](Cc2cccc(F)c2)NC1=O)C(C)C [Compound 32, (S)-methyl 2-(3-((S)-1-((5S,8S,E)-5-(3-fluorobenzyl)-2,7-dioxo-1,6-diazacyclododec-3-en-8-ylamino)-1-oxo-3-(3-(trifluoromethyl)phenyl)propan-2-yl)ureido)-3-methylbutanoate]",4531 M⁻¹ s⁻¹

# Second part, the compound after the results:
row,hs20S kin/Ki,Compound
1,7332 M⁻¹ s⁻¹,"COC(=O)[C@@H](NC(=O)N[C@@H](Cc1ccc(C)cc1)C(=O)N[C@H]1CCCCNC(=O)/C=C/[C@H](Cc2ccccc2F)NC1=O)C(C)C [Compound 21, (S)-methyl 2-(3-((S)-1-((5S,8S,E)-5-(2-fluorobenzyl)-2,7-dioxo-1,6-diazacyclododec-3-en-8-ylamino)-1-oxo-3-p-tolylpropan-2-yl)ureido)-3-methylbutanoate]"
2,8532 M⁻¹ s⁻¹,"COC(=O)[C@@H](NC(=O)N[C@@H](Cc1cccc(Cl)c1)C(=O)N[C@H]1CCCCNC(=O)/C=C/[C@H](Cc2cccc(F)c2)NC1=O)C(C)C [Compound 25, (S)-methyl 2-(3-((S)-3-(3-chlorophenyl)-1-((5S,8S,E)-5-(3-fluorobenzyl)-2,7-dioxo-1,6-diazacyclododec-3-en-8-ylamino)-1-oxopropan-2-yl)ureido)-3-methylbutanoate]"
3,12605 M⁻¹ s⁻¹,"COC(=O)[C@@H](NC(=O)N[C@@H](Cc1ccc(Cl)cc1)C(=O)N[C@H]1CCCCNC(=O)/C=C/[C@H](Cc2cccc(F)c2)NC1=O)C(C)C [Compound 26, (S)-methyl 2-(3-((S)-3-(4-chlorophenyl)-1-((5S,8S,E)-5-(3-fluorobenzyl)-2,7-dioxo-1,6-diazacyclododec-3-en-8-ylamino)-1-oxopropan-2-yl)ureido)-3-methylbutanoate]"
4,14336 M⁻¹ s⁻¹,COC(=O)[C@@H](NC(=O)N[C@@H](Cc1ccccc1)C(=O)N[C@H]1CCCCNC(=O)/C=C/[C@H](Cc2cccc(F)c2)NC1=O)C(C)C [Compound 27]
5,12866 M⁻¹ s⁻¹,"COC(=O)[C@@H](NC(=O)N[C@@H](Cc1cccc(C)c1)C(=O)N[C@H]1CCCCNC(=O)/C=C/[C@H](Cc2cccc(F)c2)NC1=O)C(C)C [Compound 28, (S)-methyl 2-(3-((S)-1-((5S,8S,E)-S-(3 fluorobenzyl)-2,7-dioxo-1,6-diazacyclododec-3-en-8-ylamino)-1-oxo-3-m-tolylpropan-2-yl)ureido)-3-methylbutanoate]"
6,11670 M⁻¹ s⁻¹,"COC(=O)[C@@H](NC(=O)N[C@@H](Cc1ccc(C)cc1)C(=O)N[C@H]1CCCCNC(=O)/C=C/[C@H](Cc2cccc(F)c2)NC1=O)C(C)C [Compound 29, (S)-methyl 2-(3-((S)-1-((5S,8S,E)-S-(3-fluorobenzyl)-2,7-dioxo-1,6-diazacyclododec-3-en-8-ylamino)-1-oxo-3-p-tolylpropan-2 yl)ureido)-3-methylbutanoate]"
7,5016 M⁻¹ s⁻¹,"COC(=O)[C@@H](NC(=O)N[C@@H](Cc1cccc(F)c1)C(=O)N[C@H]1CCCCNC(=O)/C=C/[C@H](Cc2cccc(F)c2)NC1=O)C(C)C [Compound 31, (S)-methyl 2-(3-((S)-1-((5S,8S,E)-5-(3-fluorobenzyl)-2,7-dioxo-1,6-diazacyclododec-3-en-8-ylamino)-3-(3-fluorophenyl)-1-oxopropan-2-yl)ureido)-3-methylbutanoate]"
